Measurements reported in US20240148745A1, “COMPOUNDS FOR USE IN PROGRESSIVE MULTIPLE SCLEROSIS” (FONDAZIONE CENTRO SAN RAFFAELE, priority 2021, published 2024).
Where two headings read alike, the source gives them in different places.

Tests used:
rat primary OPC cultures = assay: Differentiation of rat primary OPC into MBP+ OLs; type: cell-based; conditions: 96 h, 4 days of differentiation, read-out: MBP+ differentiation (MBP+/SOX10+ OLs plus compounds / plus basal medium)
Protocol: Secondary validation on primary rat OPC differentiation. Re-validation of the best performing compounds promoting OPC differentiation (fold change >1.5) was performed on primary rat OPC cultures in 96 well-plate run in triplicates by triple immunolabeling for CNPase, MBP and SOX10 as a readout. Compounds at […] were added for 4 days of differentiation and then cell cultures were imaged with ArrayScanXTI platform, number of MBP+OLs were quantified by semi-automated software. Basal medium served as a negative control, 9 cis-RA ([…]) was a positive control.
Re-validation of the 49 compounds selected from the short list (160 compounds) using rat primary OPC cultures (compounds tested in triplicates in 3 independent experiments. The secondary validation screen of these compounds performed on rat primary OPC cultures selected 17 best lead compounds with a pro-differentiation activity (MBP+/SOX10+OLs plus compounds/MBP+SOX10+ plus basal medium fold increase) induced a strong differentiation into MBP+OLs (fold increase >1.6). Results are shown in FIG. 7.

[1] = tested on: murine cortical neurons (14 DIV); assay: NMDA-mediated neuroprotective assay (CCK8 viability); type: cell-based, mouse; conditions: 1 μM, 3 h pre-treatment, NMDA 8 μM 24 h, p<0.05
Protocol: To assess neuroprotective activity of 160 selected non-toxic compounds on primary murine cortical neurons, obtained as described in the previous paragraph, ([…]), cultures were pre-treated with 1 μM compounds for either 3 or 24 hours, followed by 24 hours chronic stimulation with NMDA (8 μM) to induce neuronal damage. Each test plate included: a negative control (untreated), vehicle-treated control (0.02% vol/vol DMSO), a positive neurotoxic control—staurosporine 0.1 μM, a stressor—NMDA 8 μM, a positive neuroprotective control—NAC 300 μM, and a combination of stressor +neuroprotective molecule (NMDA+NAC). Cell viability was measured with Cell Counting Kit-8 assay compared to NMDA-treated control.
The potential neuroprotective activity of 160 selected non-toxic compounds was evaluated on murine cortical neurons (14 DIV) with either 3 h (FIG. 13) or 24 h compounds pre-treatment (FIG. 14). In assay with 3 h pre-treatment, 17 compounds were identified as potential NMDA-neuroprotective hits (marked with black asterisk in FIG. 13, stat. significant at p<0.05, Kruskal-Wallis test with post-hoc two-stage linear step-up procedure of Benjamini, Krieger and Yekutieli multiple comparison correction).

[2] = tested on: iPSC-derived neurons (DIV45)
Protocol: This protocol was modified from Yuchen Qi et al.^32 First, neural progenitors (NPCs) were generated from hiPSCs by dual-SMAD inhibition. Shortly, at day 0 iPSC colonies (confluent at 70-80%) were washed with PBS Dulbecco's w/o Calcium w/o Magnesium (Euroclone) and hiPSCs' maintenance medium (mTeSR™, StemCell Technologies) was replaced with neural induction medium composed by DMEM/F12 plus N2 medium (1×), B27 without RA supplement (0.5×) (Life Technology), added with SB431542 (10 μM) and LDN (500 nM). This medium was kept until day 4 (“induction”). At day 4, cells were splitted (1:3) with the same induction medium using Accutase®/Accumax™ (StemCell Technologies) dissociated solution. Entire medium was replaced daily up to days 14-16 until rosette formation was observed (“patterning”). At days 14-16, cells were detached by Accutase®/Accumax™ and re-plated on polyornitine/laminin/fibronectin coated MW96 or MW24 plates for terminal differentiation in Neurobasal medium supplemented with B27 (0.5×), BDNF (20 ng/ml), dbcAMP (500 μM), ascorbic acid (200 μM), PD0325901 (1 μM), SU5402 (5 μM), CHIR (3 μM), human recombinant insulin (5 μg/ml), supplemented with RI (Rock inhibitor) (1:3000) to reduce dissociation induced apoptosis. The half of differentiation medium was changed every 3-4 days, supplemented with 1 μg/ml laminin and DAPT (1-2 μM) until terminal maturation of neuronal population (MAP2+ cells). Cultures were characterized by immunocytochemistry and qRT-PCR and neuroprotective experiments were performed on days 30-40 of differentiation.
Evaluation of cytotoxicity of 160 selected compounds on iPSC-derived neurons (DIV45).

[3] = tested on: rat oligodendrocyte progenitor CG4 line; assay: Differentiation assay on rat oligodendrocyte progenitor CG4 line (HCS, mCherry+); type: cell-based; conditions: secondary screen of 49 selected compounds, 1 μM, 5 days
How it was run: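 Double-reporter CG4 cells (mCherry in mature oligodendrocytes, EGFP in all lineage stages) proliferated 24 h, then given compounds at 1 μM for 5 days of differentiation, ⅔ medium changed at day 3. 9cis-RA as positive control, basal medium and 0.1% DMSO as negative; triplicates imaged by HCS, 35 fields/well.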

[4] = tested on: human iPS-derived neuroprecursors; assay: Differentiation of human iPS-derived neuroprecursors into MBP+ oligodendrocytes; type: cell-based; conditions: 1 μM in minimal medium, p<0.05
Source text: NPC bearing a doxycycline inducible polycistronic construct containing SOX10, OLIG2 and NKX6.2^29 in a human safe harbor (passages 10 to 25) were singularized on day −3 by treatment with Accutase and plated on Matrigel-coated 12-well plates at a density of 100.000 cells per well in N2B27-medium containing equal parts of neurobasal (Invitrogen) and DMEM-F12 medium (Invitrogen) with 1:100 B27 supplement lacking vitamin A (Invitrogen), 1:200 N2 supplement (Invitrogen), 1% penicillin/streptomycin/glutamine (PSG), 3 μM CHIR99021 (Axon Medchem), 150 μM ascorbic acid and 0.5 μM SAG. The next day medium was changed to N2B27-medium containing 1 μg/ml doxycycline. On DO medium was changed to glial-induction medium (GIM) consisting of DMEM-F12 with 1:100 B27 supplement lacking vitamin A, 1:200 N2 supplement, 1% PSG, 1 μM SAG, 10 ng/mL NT3 (Peprotech), 10 ng/mL IGF-I (Peprotech), 200 μM AA (Sigma), 1:1000 Trace Elements B (Corning). For full medium conditions 10 ng/ml T3 was added. On Day 2 medium was changed to glial-differentiation medium (GDM) comprising DMEM-F12 with 1:100 B27 supplement lacking vitamin A, 1:200 N2 supplement, 1% PSG, 100 μM dbCAMP (Sigma), 100 μM AA, 1:1000. For full medium conditions 60 ng/mL T3, Trace Elements B 10 ng/mL, IGF-I, 10 ng/mL and NT3 were added to the culture. GDM was changed every other day. On day 7 cells were detached by treatment with Accutase and re-plated on laminin coated 48-well plates at densities of 10.000-12.000 cells per well. After 24 h cells were treated in minimal medium with either vehicle alone [0.01% (vol/vol) DMSO] as a negative control, 60 ng/mL T3 as a positive control, or with a drug candidate dissolved in DMSO. Medium was changed every other day. On D16 doxycycline was removed from the medium. Cells were fixed on D21 and analyzed via immunocytochemistry.
Immunocytochemistry. Cells were initially fixed with 4% PFA treatment for 20 min, RT. Following three washes with PBS cells were incubated with blocking solution containing 5% normal goat serum (NGS) and 5% FCS (fetal calf serum) in PBS for 30 min at RT to prevent unspecific binding of the antibodies. To detect intracellular antigens cells were permeabilized by adding 0.5% Triton X-100 to the Blocking-solution. Cells treated with Triton X-100 were washed three times with PBS each time for 5 min at RT. Primary antibodies (rat anti-MBP,1:50, Abcam, AB7349) were applied overnight, 4° C., in blocking solution. The next day cells were washed 3 times with PBS at RT, and afterwards incubated with secondary antibodies (AF488 Alexa Fluor anti-rat (goat), 1:500, Jackson/Dianova, #112-545-167) diluted in PBS for 1 h at RT. Secondary antibodies were subsequently removed by washing 3 times with PBS. Afterwards PBS containing a Dapi staining for nuclei was added for 5 minutes and afterwards washed off with PBS. Cells were kept at 4° C. until imaging.
Imaging and evaluation. From each condition (triplicates) 20-30 pictures were taken randomly chosen by the Dapi-signal. Cell numbers were determined by using an ImageJ Macro to count the nuclei whereas MBP positive cells were subsequently counted manually in black and white images.
The effect on oligodendroglial differentiation of 32 compounds (“Front runners”) was tested. Induced pluripotent stem cells in which the transcription factors SOX10, OLIG2, NKX6.2 were inserted in a doxycycline inducible manner into a human safe harbor were differentiated into neural stem cells. Differentiation into oligodendrocytes was induced by addition of doxycycline. Cells were cultured either in a minimal medium (MM) (negative control) or in MM with the different compounds at a concentration of 1 μM. Addition of T3 to the minimal medium served as a positive control.

[5] = tested on: iPSC-derived glutamatergic neurons; assay: ROS (tBuOOH)-mediated neuroprotective assay on hNeu; type: cell-based, human; conditions: control line CTR4, 1 μM, p<0.05
Protocol: Neuroprotective experiments were performed using iPSC-derived glutamatergic neurons from 3 healthy controls cultured for 30-40 DIV. Cells were pre-treated for 24 h with […] of compounds, vehicle (DMSO) or 5 nM Mito-Q (mitoquinone) served as a positive control. On the next day cells were incubated for 2 h with 100 µM of tert-butyl peroxide (tBuOOH, Sigma), then the medium was replaced and the viability readout by CCK8 viability assay kit (Dojindo) was performed on the following day. The cell viability was expressed as normalized Z score and compared to tBuOOH-treated cells with nonparametric Kruskal-Wallis test with Dunn's multiple comparisons correction.
32 “Front runners” and 7 compounds from short list were tested on iPSC-derived neurons from three control lines in ROS-mediated assay to evaluate a neuroprotective potential of selected compounds. Three independent experiments were performed for CTR4 and CTR8, FIG. 20 (A, C), while two independent experiments were performed for CTR7, FIG. 20 (B).

mouse cortical neurons = assay: Morphological integrity evaluation, NMDA 8 μM (MAP2 neurite length and branching); type: cell-based; conditions: 3 h pre-treatment, NMDA 8 μM 24 h; Z>0.5 criteria
Protocol: Apart of viability/metabolic readout in NMDA-mediated neurotoxicity assay, a neuronal structural integrity was evaluated by MAP2 staining. Mouse cortical neurons (14 DIV) cultured in MW96 plates were fixed with 4% paraformaldehyde (PFA). Fixed cells were incubated with blocking solution (PBS 1×, donkey serum 5%, Triton 0.1%) for 1-hour, primary antibody (rabbit α-MAP2, 1:250, Millipore) was applied in the same solution overnight at +4° C. […] Nuclei were stained with 4′-6-diamidino-2-phenylindole (DAPI, Roche). Microscopy was performed using ArrayScan™XTI (ThermoFisher) imaging platform. 15 images per well were acquired and analyzed by CellProfiler. Total neurite length and the total number of non-trunk branches were analyzed. Total neurite length and the total number of branching were evaluated from 15 images/well, each compound or control was tested in triplicates. The total neurite length and total number of branches were converted to a standardized Z-score using formula: Xij=((Xij−μ)/σ), where xij is the raw measurement of the compound located in well (i, j), and μ and σ are, respectively, the mean and the standard deviation of all measurements of the plate.^31
The morphological integrity of mouse cortical neurons upon chronic 24 h NMDA (8 μM) exposure with compounds pre-treatment (3 h) in preventive regimen was evaluated. Control (basal), DMSO, N-acetylcysteine (NAC) served as positive controls, while staurosporine and NMDA were negative controls.

Compound | neuroprotection of viability/metabolic activity against NMDA [1] | viability compared to DMSO ([2]; human) | CG4 differentiation compared with 9cis-RA positive control [3] | other results
Cc1c(Cc2ccc3ccccc3n2)c2cc(F)ccc2n1CC(=O)O [0C000459, TIMAPIPRANT] | hit compounds | 65-80% | promoting differentiation significantly higher than 9cis-RA positive control | fold induction at 1 µM (rat primary OPC cultures): > 1.6
COc1cccc(OC)c1-c1cc(C(=O)NC2(C(=O)O)C3CC4CC(C3)CC2C4)nn1-c1ccnc2cc(Cl)ccc12 (centres unmarked) [Reminertant] |  | 65-80% |  | 
CNCc1ccc(C)c(NC(=O)c2ccc(Nc3nc(-c4ccccc4)c4ccccc4n3)cc2)c1 [BMS-833923] |  | 65-80% | promoting differentiation significantly higher than 9cis-RA positive control | 
CC[C@@H](Oc1cccc(CN(CCCOc2ccc(OC)cc2)c2nc3ccccc3o2)c1)C(=O)O [K-877 Pemafibrate] |  |  |  | viability compared to DMSO [2]: 65-80%
CNC(=O)c1ccc(Oc2ccc3c(c2)CCN(C2CCC2)CC3)nc1 [GSK189254] | hit compounds |  | promoting differentiation significantly higher than 9cis-RA positive control | differentiation into MBP+ oligodendrocytes [4]: promote significantly (p<0.05) the differentiation into MBP+ oligodendrocytes; differentiation into MBP+ oligodendrocytes ([4]; listed as Gsk189254): promote significantly the differentiation into MBP+ oligodendrocytes; protection from tBuOOH insult [5]: protected from tBuOOH insult
CCn1c(=O)c2c(nc(/C=C/c3ccc(OC)c(OC)c3)n2C)n(CC)c1=O [Istradefylline] |  | 65-80% |  | 
OC1CCC(Nc2nc(-c3ccccc3)nc3[nH]ccc23)CC1 (centres unmarked) [Derenofylline] |  | 65-80% |  | 
Oc1ccc([C@H]2COc3cc(O)ccc3C2)cc1 [Equol] |  |  | promoting differentiation significantly higher than 9cis-RA positive control | protection from tBuOOH insult [5]: protected from tBuOOH insult
Cc1nc(C#Cc2ccnc(Cl)c2)c(C)n1-c1ccc(F)cc1 [Basimglurant] |  | 65-80% |  | preservation of neurite length and network integrity (branching) (mouse cortical neurons): preserved both neurite length and the network integrity (branching)
CC1(C)CC(C)(C)CC(C)(N)C1 [Neramexane] | hit compounds |  | promoting differentiation significantly higher than 9cis-RA positive control | viability compared to DMSO [2]: 65-80%; preservation of neurite length and network integrity (branching) (mouse cortical neurons): preserved both neurite length and the network integrity (branching)
